Experimental data taken from ChEMBL document CHEMBL2007661, “Compounds: GSK PKIS; Assays: UNC Frye lab” (2012).
Values joined by “and” are separate entries in the source; they are usually repeats but may differ in a detail not shown here. Equal values may be shown once.

Legend:
[1] = biological target: T1, Tyrosine-protein kinase Mer (Homo sapiens) (UniProt Q12866); details: at 10 µM
T1 sequence (whole entry): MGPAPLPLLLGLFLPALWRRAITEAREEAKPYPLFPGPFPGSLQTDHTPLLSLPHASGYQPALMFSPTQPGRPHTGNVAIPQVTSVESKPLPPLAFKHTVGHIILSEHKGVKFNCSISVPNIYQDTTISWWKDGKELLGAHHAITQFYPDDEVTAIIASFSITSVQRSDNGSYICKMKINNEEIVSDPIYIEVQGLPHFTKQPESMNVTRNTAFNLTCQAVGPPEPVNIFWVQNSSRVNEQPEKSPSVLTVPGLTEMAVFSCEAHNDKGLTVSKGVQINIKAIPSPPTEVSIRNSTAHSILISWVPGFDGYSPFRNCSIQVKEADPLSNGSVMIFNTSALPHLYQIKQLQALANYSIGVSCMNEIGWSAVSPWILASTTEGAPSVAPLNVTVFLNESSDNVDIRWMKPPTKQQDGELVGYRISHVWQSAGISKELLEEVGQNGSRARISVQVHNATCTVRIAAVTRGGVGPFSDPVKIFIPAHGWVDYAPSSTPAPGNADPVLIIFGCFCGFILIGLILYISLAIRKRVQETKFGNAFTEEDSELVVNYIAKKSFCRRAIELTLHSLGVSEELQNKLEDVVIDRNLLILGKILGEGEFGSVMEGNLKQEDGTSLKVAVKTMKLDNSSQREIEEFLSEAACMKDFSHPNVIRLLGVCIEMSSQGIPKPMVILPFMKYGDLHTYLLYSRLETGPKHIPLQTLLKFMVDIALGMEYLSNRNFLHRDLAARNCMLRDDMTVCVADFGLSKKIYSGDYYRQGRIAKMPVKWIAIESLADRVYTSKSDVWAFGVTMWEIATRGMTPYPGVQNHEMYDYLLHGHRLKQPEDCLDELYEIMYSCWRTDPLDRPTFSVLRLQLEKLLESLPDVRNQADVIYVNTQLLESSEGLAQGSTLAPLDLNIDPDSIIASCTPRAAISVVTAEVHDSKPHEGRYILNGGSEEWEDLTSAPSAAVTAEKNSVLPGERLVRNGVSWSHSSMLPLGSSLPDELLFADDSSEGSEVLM

[2] = biological target: T2, Serine/threonine-protein kinase TBK1 (Homo sapiens) (UniProt Q9UHD2); details: at 1 µM
T2 sequence (whole entry): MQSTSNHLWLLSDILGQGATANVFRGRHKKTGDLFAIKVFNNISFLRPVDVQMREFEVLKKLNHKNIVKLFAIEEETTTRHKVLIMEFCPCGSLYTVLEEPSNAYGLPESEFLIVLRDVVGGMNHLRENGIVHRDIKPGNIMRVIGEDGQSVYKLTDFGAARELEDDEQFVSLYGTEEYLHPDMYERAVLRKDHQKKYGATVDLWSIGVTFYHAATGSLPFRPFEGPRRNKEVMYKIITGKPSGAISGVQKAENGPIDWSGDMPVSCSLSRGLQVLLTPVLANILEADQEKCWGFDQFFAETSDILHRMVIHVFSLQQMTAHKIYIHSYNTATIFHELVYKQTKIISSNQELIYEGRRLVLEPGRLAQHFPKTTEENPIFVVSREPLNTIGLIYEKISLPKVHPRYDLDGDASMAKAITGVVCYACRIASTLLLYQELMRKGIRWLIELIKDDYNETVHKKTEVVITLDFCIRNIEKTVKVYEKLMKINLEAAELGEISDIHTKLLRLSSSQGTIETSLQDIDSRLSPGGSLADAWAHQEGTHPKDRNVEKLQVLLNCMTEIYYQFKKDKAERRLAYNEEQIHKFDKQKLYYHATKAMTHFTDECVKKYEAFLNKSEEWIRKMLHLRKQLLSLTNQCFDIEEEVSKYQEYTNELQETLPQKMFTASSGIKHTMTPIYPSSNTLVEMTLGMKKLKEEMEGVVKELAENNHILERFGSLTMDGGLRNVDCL

Compound	inhibition [1]	inhibition [2]
O=C1Nc2ccccc2/C1=C/Nc1ccc2[nH]c(=O)[nH]c2c1	-2%	30% and 27%
CNC(=O)c1cncc(/C=C/c2ccccc2Cl)c1	5%	2% and 1%
O=C1Nc2ccc(-c3cccnc3)cc2C1=Cc1cc(Br)c(O)c(Br)c1	1%	40% and 43%
CN(c1ccc(NC(=O)Nc2ccc(OC(F)(F)F)cc2)cc1)c1ccnc(Nc2cccc(S(N)(=O)=O)c2)n1	-1%	18%
CN1CCN(Cc2ccc(-c3cc4ncnc(Nc5ccc(OCc6cccc(F)c6)c(Cl)c5)c4s3)o2)CC1	-4%	7% and 3%
COc1cc2ncn(-c3cc(OCc4ccccc4C(F)(F)F)c(C(N)=O)s3)c2cc1OC	10%	12%
CN1CCC(C(=O)Nc2n[nH]c3nc(-c4ccc(O)cc4)c(Br)cc23)CC1	15% and 7%	3% [middle of 4 runs]
COC(=O)Nc1nc2cc(Oc3ccc(NC(=O)Nc4ccccc4)cc3)ccc2[nH]1	100%	8%
FC(F)(F)CNc1nccc(-c2cnn3ncccc23)n1	1%	-2% and -4%
CCCN1CCC=C(c2ccc(Nc3nc(Nc4ccccc4C(N)=O)c4cc[nH]c4n3)c(C)c2)C1	10%	28% and 24%
O=C(Nc1n[nH]c2nc(-c3ccco3)c(Br)cc12)C1CC1	83%	18% and 25%
CCn1c(-c2nonc2N)nc2c(C#CC(C)(C)O)ncc(OC3CCNCC3)c21	-5%	55% and 57%
Cc1cc(-c2ccco2)cc(C)c1/C=C/c1cncc(-c2nn[nH]n2)c1	86%	5% and 3%
OCCCNc1nccc(-c2c(-c3ccc(F)cc3)nn3cc(C(F)(F)F)ccc23)n1	57%	-2% and -5%
CC(C)=Cc1cccc2c1/C(=N/Nc1ccc(S(N)(=O)=O)cc1)C(=O)N2	68%	46% and 45%
CNC(=O)c1cc(-c2ccc(F)cc2)cc(-c2ccc(S(=O)(=O)N3CCCC3)cc2)c1N	-7%	4% and 2%
COc1cccc(-c2c[nH]c3c(N/N=C/c4ccncc4)ncnc23)c1	85%	74% and 76%
Fc1ccc(-c2ncn(C3CCNCC3)c2-c2ccnc(Oc3ccc(Oc4ccccc4)cc3)n2)cc1	0%	3% and 2%
CC(C)c1ccc(-c2cc(-c3c[nH]nc3-c3ccccn3)ccn2)cc1	-10%	-5% and -7%
CCc1cccc(NC(=O)Nc2ccc(Oc3ccc4nc(NC(=O)OC)[nH]c4c3)cc2)c1	8%	-3% and -1%
CCS(=O)(=O)c1ccc(OC)c(Nc2nccc(N(C)c3ccc4c(C)n[nH]c4c3)n2)c1	-2%	1%
